Reference: US10413583B2, “Synthetic substrates for enzymes that catalyze reactions of modified cysteines and related methods” (The University of Chicago, priority 2016, dated 2019)

System: HEK293T cells
Test: Fluorescence imaging of RDP-1 and RDP-2 with HEK293T cells
Type: cell-based, human
Conditions: for change in depalmitoylation activity from RDP-1: 10 μM inhibitor 30 min
Protocol: HEK293T were plated with […] of DMEM (Gibco, Gaithersburg, Md., United States of America; High Glucose, Glutamax, 10% FBS) a four well chambered imaging dish (D35C4-20-1.5-N, Cellvis, Mountain View, Calif., United States of America) which were precoated with 4 μg Poly-D-lysine (30-70 kilodalton (KDa), Alfa Aesar, Haverhill, Mass., United States of America) for 2 h at room temperature or overnight at 4° C. and grown to ca. 80% confluence prior to imaging. 30 min before the addition of the RDP, the cell culture media was removed and cells were washed with 500 μL of serum-free DMEM (Gibco, Gaithersburg, Md., United States of America, High Glucose, Glutamax, no FBS). The media was then replaced with 500 μL of serum-free DMEM containing 100 nM Mitotracker Deep Red (Thermo Fisher Scientific, Waltham, Mass., United States of America; to assist in focusing and processing) and either 0.1% DMSO carrier as a control or Palm B, ML348, or ML349 in DMSO and incubated for 30 min at 37° C. and 5% CO2. The media was removed, the cells were washed with 500 μL of Live Cell Imaging Solution (Thermo Fisher Scientific, Waltham, Mass., United States of America), and 500 μL of 1 μM RDP-1 or RDP-2 along with the appropriate inhibitor or DMSO as control in Live Cell Imaging Solution was added to each well. After incubation for 10 min at 37° C. and 5% CO2, the cells were washed with 500 μL Live Cell Imaging Solution and 500 μL of Live Cell Imaging Solution containing DMSO or the appropriate inhibitor was added to the cells immediately before images were obtained on an inverted epi-fluorescence microscope (Olympus IX83; Olympus Corporation, Tokyo, Japan) attached with EMCCD camera (Photometrics EVOLVE™ Delta; Photometrics, Tucson, Ariz., United States of America) with 40× oil objective (N/A 1.3) for RDP-1 (excitation filter 1 430/24 nm, dichroic chroma 89007, emission filter 1 470/24 nm, exposure time 100 ms, EM gain 80, excitation filter 2 480/20 nm, dichroic chroma 49014, emission filter 2 575/40 nm, exposure time 70 ms, EM gain 50) or for RDP-2 (excitation filter 1 430/24 nm, dichroic chroma 89007, emission filter 1 470/24 nm, exposure time 70 ms, EM gain 50, excitation filter 2 480/20, dichroic chroma 49014, emission filter 2 575/40 nm, exposure time 50 ms, EM gain 30), brightfield (exposure time 50 ms, EM gain 30), and MitoTracker Deep Red: (excitation filter 640/30 nm, emission filter 705/72 nm, dichroic chroma 89016, exposure time 15 ms, EM gain 15). Analyses were performed in ImageJ as described below. Each experiment was repeated at least three separate times with identical results.
The probe channel data were expressed as a ratio of the blue channel divided by the green channel and normalized to the average fluorescence intensity of the control conditions. To eliminate errors from autofluorescence, the images were thresholded using the bluer channel images at the same minimum level that included the maximum number of cells in focus (as determined visually by the mitocondrial dye) while limiting the signal from areas where cells are not present. The average value of all nonzero pixels from the blue channel:green channel ratio image were calculated in ImageJ for three different measurements from each experiment. The percent deprotected was estimated by imaging RDP-1/2 in buffer (20 mM HEPES, 150 mM NaCl, 0.1% Triton X-100, pH 7.4, 0.1% DMSO) and for dye deprotected with 20 mM DTT in buffer (20 mM HEPES, 150 mM NaCl, 0.1% Triton X-100, pH 7.4, 0.1% DMSO) for 1 h at room temperature before aliquoted into individual tubes and stored at −80° C. A fresh aliquot of the solution was thawed for each experiment and diluted to 250 nM (RDP-1) or 500 nM (RDP-2) in buffer (20 mM HEPES, 150 mM NaCl, 0.1% Triton X-100, pH 7.4, 10 mM DTT) and allowed to equilibrate for 30 m before being imaged. […]

Row | SMILES | decrease in depalmitoylation activity, RDP-2 (5 μM ML348 30 min, 1 μM RDP-2) | change in depalmitoylation activity from RDP-1 (1 μM RDP-1) | increase in depalmitoylation activity, RDP-2 (5 μM ML349 30 min, 1 μM RDP-2) | decrease of measured depalmitoylation activity, RDP-1 (20 μM PalmB 30 min pretreatment, 1 μM RDP-1) | decrease of measured depalmitoylation activity, RDP-2 (20 μM PalmB 30 min pretreatment, 1 μM RDP-2)
1 | O=C(CN1CCN(C(=O)c2ccco2)CC1)Nc1cc(C(F)(F)F)ccc1Cl [ML348] | about 30% | slight increase |  |  | 
2 | COc1ccc(N2CCN(C(=O)c3cc4c(s3)-c3ccccc3S(=O)(=O)C4)CC2)cc1 [ML349] |  | slight increase | about 12% |  | 
3 | CCCCCCCCCC[C@@H]1C(=O)O[C@H]1CCc1ccc(OC)c(OC)c1 [PalmB, palmostatin B] |  |  |  | almost in half | almost in half
